# Experimental data reported in ChEMBL document CHEMBL1641523, “Hypericins and thioredoxin reductase: Biochemical and docking studies disclose the molecular basis for effective inhibition by naphthodianthrones” (Bioorg Med Chem, 2011).
# The source made the active and inactive calls. The rule behind the calls is not given here.
# How the values were obtained:
# [1] = target: T1, Thioredoxin reductase 1, cytoplasmic (Rattus norvegicus, UniProt O89049); assay: Inhibition of rat liver cytosolic TrxR1 by spectrophotometry
# T1 sequence (O89049 whole entry): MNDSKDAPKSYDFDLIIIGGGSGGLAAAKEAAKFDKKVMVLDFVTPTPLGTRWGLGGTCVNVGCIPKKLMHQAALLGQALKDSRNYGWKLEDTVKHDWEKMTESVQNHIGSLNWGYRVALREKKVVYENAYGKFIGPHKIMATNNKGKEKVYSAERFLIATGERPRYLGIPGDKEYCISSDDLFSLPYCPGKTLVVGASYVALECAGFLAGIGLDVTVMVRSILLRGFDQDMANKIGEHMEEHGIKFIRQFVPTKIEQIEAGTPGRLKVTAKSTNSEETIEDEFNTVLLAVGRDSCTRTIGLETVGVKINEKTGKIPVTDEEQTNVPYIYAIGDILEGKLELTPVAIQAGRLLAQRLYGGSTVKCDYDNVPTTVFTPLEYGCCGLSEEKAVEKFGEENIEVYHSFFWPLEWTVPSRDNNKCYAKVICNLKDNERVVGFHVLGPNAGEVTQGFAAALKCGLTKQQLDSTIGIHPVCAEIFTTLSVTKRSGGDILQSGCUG
# [2] = target: Thioredoxin reductase 2, mitochondrial (Rattus norvegicus, UniProt Q9Z0J5); assay: Inhibition of rat liver mitochondrial TrxR2 by spectrophotometry
# Chain of Thioredoxin reductase 2, mitochondrial (Q9Z0J5 whole entry): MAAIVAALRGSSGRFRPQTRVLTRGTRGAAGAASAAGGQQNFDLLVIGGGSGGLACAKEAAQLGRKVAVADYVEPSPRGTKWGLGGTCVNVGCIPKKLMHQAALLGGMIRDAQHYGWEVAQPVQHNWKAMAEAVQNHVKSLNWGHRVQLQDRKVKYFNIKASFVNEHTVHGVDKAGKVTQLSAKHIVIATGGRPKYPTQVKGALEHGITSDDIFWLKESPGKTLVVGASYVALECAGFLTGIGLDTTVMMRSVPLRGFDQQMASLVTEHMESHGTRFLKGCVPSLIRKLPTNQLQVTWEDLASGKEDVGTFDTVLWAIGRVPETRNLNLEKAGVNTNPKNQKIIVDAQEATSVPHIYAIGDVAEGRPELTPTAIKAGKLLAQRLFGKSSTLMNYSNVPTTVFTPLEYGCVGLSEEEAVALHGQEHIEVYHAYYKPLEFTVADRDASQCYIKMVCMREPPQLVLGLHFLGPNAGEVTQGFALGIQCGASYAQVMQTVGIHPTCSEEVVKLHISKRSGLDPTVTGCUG
# [3] = target: T2, Glutathione reductase (Saccharomyces cerevisiae S288c, UniProt P41921); assay: Inhibition of yeast glutathione reductase by spectrophotometry
# T2 sequence (P41921 whole entry): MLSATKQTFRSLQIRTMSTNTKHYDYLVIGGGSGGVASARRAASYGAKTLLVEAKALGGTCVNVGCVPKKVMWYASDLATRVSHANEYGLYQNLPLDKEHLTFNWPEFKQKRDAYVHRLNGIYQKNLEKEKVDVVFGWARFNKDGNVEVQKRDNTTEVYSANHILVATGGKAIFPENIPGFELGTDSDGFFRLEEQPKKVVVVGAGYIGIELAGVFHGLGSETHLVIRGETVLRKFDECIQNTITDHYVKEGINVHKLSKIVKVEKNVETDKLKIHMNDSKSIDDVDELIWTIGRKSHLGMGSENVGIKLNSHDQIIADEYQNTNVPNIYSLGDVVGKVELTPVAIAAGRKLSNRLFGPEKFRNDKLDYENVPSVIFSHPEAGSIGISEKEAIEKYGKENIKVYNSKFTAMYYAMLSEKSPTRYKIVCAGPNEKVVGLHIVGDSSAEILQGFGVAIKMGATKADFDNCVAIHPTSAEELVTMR
# [4] = target: T3, Thioredoxin reductase 1, cytoplasmic (Rattus norvegicus) (UniProt O89049); assay: Inhibition of rat liver cytosolic TrxR1 at 20 uM after 1 hr by spectrophotometry
# T3 sequence (whole entry): T1 sequence (O89049 whole entry)
# [5] = target: T3, Thioredoxin reductase 1, cytoplasmic (Rattus norvegicus); assay: Inhibition of rat liver cytosolic TrxR1 at 20 uM after 2 mins by spectrophotometry
# [6] = target: T3, Thioredoxin reductase 1, cytoplasmic (Rattus norvegicus); assay: Inhibition of rat liver cytosolic TrxR1 at 100 uM by spectrophotometry in presence of 0.25 mM NADPH
# [7] = target: Thioredoxin reductase 2, mitochondrial (Rattus norvegicus) (UniProt Q9Z0J5); assay: Inhibition of rat liver mitochondrial TrxR2 at 100 uM by spectrophotometry in presence of 0.25 mM NADPH
# Chain of Thioredoxin reductase 2, mitochondrial (Rattus norvegicus) (Q9Z0J5 whole entry): as the sequence (Q9Z0J5 whole entry) above
# [8] = target: T1, Thioredoxin reductase 1, cytoplasmic; assay: Mixed-type inhibition of rat liver cytosolic TrxR1 by Lineweaver-Burk plot analysis
# [9] = target: T1, Thioredoxin reductase 1, cytoplasmic; assay: Mixed-type inhibition of rat liver cytosolic TrxR1 at protein-substrate complex by Lineweaver-Burk plot analysis
# [10] = target: T3, Thioredoxin reductase 1, cytoplasmic (Rattus norvegicus); assay: Inhibition of rat liver cytosolic TrxR1 at 50 to 100 uM by spectrophotometry in presence of 0.025 mM NADPH
# [11] = target: T3, Thioredoxin reductase 1, cytoplasmic (Rattus norvegicus); assay: Inhibition of rat liver cytosolic TrxR1 at 5 uM after 2 mins by spectrophotometry
Structure (SMILES),IC50 ([1]; read-out: IC50),IC50 ([2]; read-out: IC50),other results
O=C1c2cccc(O)c2C(=O)c2c(O)cc(CO)cc21 [ALOE-EMODIN],180 µM,> 200 µM,
O=C1c2cccc(O)c2C(=O)c2c(O)cccc21 [DANTHRON],> 200 µM,> 200 µM,
Cc1cc(O)c2c(c1)C(=O)c1cc(O[C@@H]3O[C@@H](C)[C@H](O)[C@@H](O)[C@H]3O)cc(O)c1C2=O [FRANGULIN A],> 200 µM,> 200 µM,
Cc1cc(O)c2c(=O)c3c(O)cc(O)c4c5c(O)cc(O)c6c(=O)c7c(O)cc(C)c8c1c2c(c34)c(c78)c65 [HYPERICIN],198 µM,49 µM,IC50 ([1]; read-out: pIC50 (converted)): 158 µM; IC50 ([2]; read-out: pIC50 (converted)): 43.2 µM; IC50 [3]: 3.67 µM; inhibition [4]: 60%; inhibition [5]: 20%; inhibition [6]: inactive; inhibition [7]: inactive
Cc1cc(O)c2c(=O)c3c(O)cc(O)c4c5c(O)cc(O)c6c(=O)c7c(O)cc(CO)c8c1c2c(c34)c(c65)c78 [PSEUDOHYPERICIN],4.6 µM,7.9 µM,IC50 ([1]; read-out: pIC50 (converted)): 4.41 µM; IC50 ([2]; read-out: pIC50 (converted)): 7.45 µM; Ki [8]: 1.9 µM; Ki [9]: 8.1 µM; inhibition [10]: Active; IC50 [3]: 2.2 µM; inhibition [11]: 50%; inhibition [6]: Active; inhibition [7]: Active
O=C1c2ccccc2C(=O)c2c(O)ccc(O)c21 [QUINIZARIN],> 200 µM,> 200 µM,
"O=C(O)c1cc(O)c2c(c1)C([C@H]1c3cc(C(=O)O)cc(O)c3C(=O)c3c(O[C@@H]4O[C@H](CO)[C@@H](O)[C@H](O)[C@H]4O)cccc31)c1cccc(O[C@@H]3O[C@H](CO)[C@@H](O)[C@H](O)[C@H]3O)c1C2=O (some centres not stated) [SENNOSIDE A,B]",> 200 µM,> 200 µM,
Cc1cc(O)c2c(c1)C(=O)c1c(c(O)cc(O)c1-c1c(O[C@@H]3O[C@H](CO)[C@@H](O)[C@H](O)[C@H]3O)cc(O)c3c1C(=O)c1cc(C)cc(O)c1C3=O)C2=O [SKYRIN GLUCOSIDE],> 200 µM,> 200 µM,

# Now from value to compound, other results behind:
IC50 ([1]; read-out: IC50),IC50 ([2]; read-out: IC50),Structure (SMILES),other results
> 200 µM,> 200 µM,O=C1c2c(O)cccc2C([C@@H]2O[C@H](CO)[C@@H](O)[C@H](O)[C@H]2O)c2cc(CO)cc(O)c21 (some centres not stated) [ALOIN],
> 200 µM,> 200 µM,O=C1c2ccccc2Cc2ccccc21 [ANTHRONE],
194 µM,181 µM,Cc1cc(O)c2c(c1)C(=O)c1cccc(O)c1C2=O [CHRYSOPHANOL],
185 µM,132 µM,COc1cc(O)c2c(c1)C(=O)c1cc(C)cc(O)c1C2=O [PHYSCION],
84 µM,123 µM,O=C(O)c1cc(O)c2c(c1)C(=O)c1cccc(O)c1C2=O [RHEIN],
